A word on the inhibition: it is how much of the control response was suppressed. A high value points to a strong effect.

From ChEMBL document CHEMBL1121869, “Potential inhibitors of L-asparagine biosynthesis. 5. Electrophilic amide analogues of (S)-2,3-diaminopropionic acid” (J Med Chem, 1981) come the findings set out here.

In experiment [1] the test system is TsH1. Description: Compound was evaluated for the growth inhibition of TsH1 cells in an enriched eagles minimal essential medium, medium lacking aspartic acid and asparagine at a concentration of 1.0 mg/mL (4.34 mM); Heavy growth. It counts as functional, cell-based. The note with it: Cricetulus griseus.
Experiment [2] deals with TsH1. Description: Compound was evaluated for the growth inhibition of TsH1 cells in an enriched eagles minimal essential medium, complete medium at a concentration of 0.2 mg/mL (0.87 mM); Heavy growth. It counts as functional, cell-based. The note with it: Cricetulus griseus.
Experiment [3] deals with TsH1. Description: Compound was evaluated for the growth inhibition of TsH1 cells in an enriched eagles minimal essential medium, cmedium lacking aspartic acid at a concentration of 0.04 mg/mL (0.17 mM); Heavy growth. To be noted: Cricetulus griseus. It counts as functional, cell-based.
The test system of experiment [4] is TsH1. Description: Compound was evaluated for the growth inhibition of TsH1 cells in an enriched eagles minimal essential medium, medium lacking asparagine at a concentration of 0.01 mg/mL (0.01 mM); Heavy growth. Type of experiment: functional, cell-based. The note with it: Cricetulus griseus.
The test system of experiment [5] is TsH1. Description: Compound was evaluated for the growth inhibition of TsH1 cells in an enriched eagles minimal essential medium, medium lacking aspartic acid and asparagine at a concentration of 0.01 mg/mL (0.01 mM); Heavy growth. It counts as functional, cell-based. To be noted: Cricetulus griseus.
Experiment [6] deals with T1, Asparagine synthetase [glutamine-hydrolyzing] (Rattus norvegicus) (UniProt P49088).
T1 sequence (whole entry): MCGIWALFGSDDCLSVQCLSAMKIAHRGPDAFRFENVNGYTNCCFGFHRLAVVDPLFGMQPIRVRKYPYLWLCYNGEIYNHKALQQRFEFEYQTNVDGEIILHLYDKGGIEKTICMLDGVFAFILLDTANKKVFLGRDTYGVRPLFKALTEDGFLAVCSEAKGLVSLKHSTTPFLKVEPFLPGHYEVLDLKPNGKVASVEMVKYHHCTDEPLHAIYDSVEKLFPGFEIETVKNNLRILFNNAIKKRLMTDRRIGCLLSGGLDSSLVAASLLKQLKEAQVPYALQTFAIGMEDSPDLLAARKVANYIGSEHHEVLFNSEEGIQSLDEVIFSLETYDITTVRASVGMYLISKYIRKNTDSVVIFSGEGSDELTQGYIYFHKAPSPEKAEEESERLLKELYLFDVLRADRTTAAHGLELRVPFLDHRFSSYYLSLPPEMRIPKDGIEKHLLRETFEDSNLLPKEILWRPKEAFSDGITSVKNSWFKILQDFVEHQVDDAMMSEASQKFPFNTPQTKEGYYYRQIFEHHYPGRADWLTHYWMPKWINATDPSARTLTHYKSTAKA
In words: Inhibition of asparagine synthetase from partially purified rat Novikoff hepatoma at a final concentration of 1 mM.

Experiment [7] relates to TsH1. In words: Compound was evaluated for the growth inhibition of TsH1 cells in an enriched eagles minimal essential medium, medium lacking aspartic acid at a concentration of 0.01 mg/mL (0.01 mM); Heavy growth. Type of experiment: functional, cell-based. To be noted: Cricetulus griseus.
In experiment [8] the test system is TsH1. Description: Compound was evaluated for the growth inhibition of TsH1 cells in an enriched eagles minimal essential medium, complete medium at a concentration of 0.01 mg/mL (0.01 mM); Heavy growth. It counts as functional, cell-based. The note with it: Cricetulus griseus.
Experiment [9] has as its system TsH1. In words: Compound was evaluated for the growth inhibition of TsH1 cells in an enriched eagles minimal essential medium, medium lacking asparagine at a concentration of 0.2 mg/mL (0.87 mM); Heavy growth. Type of experiment: functional, cell-based. To be noted: Cricetulus griseus.
Experiment [10] deals with TsH1. Description: Compound was evaluated for the growth inhibition of TsH1 cells in an enriched eagles minimal essential medium, medium lacking aspartic acid and asparagine at a concentration of 0.04 mg/mL (0.17 mM); Heavy growth. The note with it: Cricetulus griseus. It counts as functional, cell-based.
The test system of experiment [11] is TsH1. Description: Compound was evaluated for the growth inhibition of TsH1 cells in an enriched eagles minimal essential medium, medium lacking asparagine at a concentration of 1.0 mg/mL (4.34 mM); Heavy growth. Type of experiment: functional, cell-based. To be noted: Cricetulus griseus.
The subject of experiment [12] is TsH1. In words: Compound was evaluated for the growth inhibition of TsH1 cells in an enriched […] at a concentration of 0.2 mg/mL (0.87 mM); Heavy growth. It counts as functional, cell-based. To be noted: Cricetulus griseus.
Experiment [13] concerns TsH1. In words: Compound was evaluated for the growth inhibition of TsH1 cells in an enriched eagles minimal essential medium, medium lacking aspartic acid at a concentration of 1.0 mg/mL (4.34 mM); Heavy growth. It counts as functional, cell-based. To be noted: Cricetulus griseus.
Experiment [14] has as its system TsH1. In words: Compound was evaluated for the growth inhibition of TsH1 cells in an enriched eagles minimal essential medium, complete medium at a concentration of 1.0 mg/mL (4.34 mM); Heavy growth. Type of experiment: functional, cell-based. To be noted: Cricetulus griseus.
The subject of experiment [15] is TsH1. In words: Compound was evaluated for the growth inhibition of TsH1 cells in an enriched eagles minimal essential medium, medium lacking aspartic acid and asparagine at a concentration of 0.2 mg/mL (0.87 mM); Heavy growth. It counts as functional, cell-based. The note with it: Cricetulus griseus.
Experiment [16] deals with TsH1. In words: Compound was evaluated for the growth inhibition of TsH1 cells in an enriched eagles minimal essential medium, complete medium at a concentration of 0.04 mg/mL (0.17 mM); Heavy growth. To be noted: Cricetulus griseus. It counts as functional, cell-based.
Experiment [17] relates to TsH1. Description: Compound was evaluated for the growth inhibition of TsH1 cells in an enriched eagles minimal essential medium, medium lacking asparagine at a concentration of 0.04 mg/mL (0.17 mM); Heavy growth. It counts as functional, cell-based. The note with it: Cricetulus griseus.
In experiment [18] the test system is TsH1. Description: (§1) Compound was evaluated for the growth inhibition of TsH1 cells in an enriched eagles minimal essential medium, medium lacking asparagine at a concentration of 0.04 mg/mL (0.19 mM); Heavy growth. It counts as functional, cell-based. To be noted: Cricetulus griseus.
The subject of experiment [19] is TsH1. Description: Compound was evaluated for the growth inhibition of TsH1 cells in an enriched eagles minimal essential medium, medium lacking asparagine at a concentration of 0.2 mg/mL (0.93 mM); Cells dead. Type of experiment: functional, cell-based. The note with it: Cricetulus griseus.
The test system of experiment [20] is TsH1. In words: Compound was evaluated for the growth inhibition of TsH1 cells in an enriched eagles minimal essential medium, medium lacking aspartic acid at a concentration of 0.2 mg/mL (0.93 mM); Heavy growth. Type of experiment: functional, cell-based. To be noted: Cricetulus griseus.
Experiment [21] deals with TsH1. In words: Compound was evaluated for the growth inhibition of TsH1 cells in an enriched eagles minimal essential medium, medium lacking aspartic acid and asparagine at a concentration of 0.01 mg/mL (0.04 mM); Heavy growth. Type of experiment: functional, cell-based. To be noted: Cricetulus griseus.
Experiment [22] concerns TsH1. In words: Compound was evaluated for the growth inhibition of TsH1 cells in an enriched eagles minimal essential medium, medium lacking aspartic acid at a concentration of 0.01 mg/mL (0.04 mM); Heavy growth. It counts as functional, cell-based. To be noted: Cricetulus griseus.
In experiment [23] the test system is TsH1. In words: Compound was evaluated for the growth inhibition of TsH1 cells in an enriched eagles minimal essential medium, complete medium at a concentration of 1.0 mg/mL (4.65 mM); Medium growth. It counts as functional, cell-based. To be noted: Cricetulus griseus.
The test system of experiment [24] is TsH1. In words: Compound was evaluated for the growth inhibition of TsH1 cells in an enriched eagles minimal essential medium, complete medium at a concentration of 0.01 mg/mL (0.04 mM); Heavy growth. It counts as functional, cell-based. To be noted: Cricetulus griseus.
The test system of experiment [25] is TsH1. Description: Compound was evaluated for the growth inhibition of TsH1 cells in an enriched eagles minimal essential medium, complete medium at a concentration of 0.04 mg/mL (0.19 mM); Heavy growth. It counts as functional, cell-based. The note with it: Cricetulus griseus.
The subject of experiment [26] is TsH1. Description: Compound was evaluated for the growth inhibition of TsH1 cells in an enriched eagles minimal essential medium, complete medium at a concentration of 0.2 mg/mL (0.93 mM); Heavy growth. Type of experiment: functional, cell-based. To be noted: Cricetulus griseus.
Experiment [27] has as its system TsH1. Description: Compound was evaluated for the growth inhibition of TsH1 cells in an enriched eagles minimal essential medium, medium lacking aspartic acid and asparagine at a concentration of 0.2 mg/mL (0.93 mM); Cells dead. To be noted: Cricetulus griseus. It counts as functional, cell-based.
Experiment [28] has as its target T1, Asparagine synthetase [glutamine-hydrolyzing] (Rattus norvegicus). Description: Inhibition of asparagine synthetase from partially purified rat Novikoff hepatoma at a final concentration of 1 mM with.
For experiment [29], the system named is TsH1. Description: Compound was evaluated for the growth inhibition of TsH1 cells in an enriched eagles minimal essential medium, medium lacking aspartic acid and asparagine at a concentration of 1.0 mg/mL (4.65 mM); Cells dead. It counts as functional, cell-based. To be noted: Cricetulus griseus.
The test system of experiment [30] is TsH1. Description: Compound was evaluated for the growth inhibition of TsH1 cells in an enriched eagles minimal essential medium, medium lacking asparagine at a concentration of 1.0 mg/mL (4.65 mM); Cells dead. To be noted: Cricetulus griseus. It counts as functional, cell-based.
In experiment [31] the test system is TsH1. In words: Compound was evaluated for the growth inhibition of TsH1 cells in an enriched eagles minimal essential medium, medium lacking aspartic acid at a concentration of 1.0 mg/mL (4.65 mM); Medium growth. It counts as functional, cell-based. To be noted: Cricetulus griseus.
Experiment [32] has as its system TsH1. The experiment is described as §1. Type of experiment: functional, cell-based. The note with it: Cricetulus griseus. This is another data set of the same source.
The subject of experiment [33] is TsH1. In words: Compound was evaluated for the growth inhibition of TsH1 cells in an enriched eagles minimal essential medium, medium lacking asparagine at a concentration of 0.01 mg/mL (0.04 mM); Heavy growth. Type of experiment: functional, cell-based. The note with it: Cricetulus griseus.
For experiment [34], the system named is TsH1. Description: Compound was evaluated for the growth inhibition of TsH1 cells in an enriched eagles minimal essential medium, medium lacking aspartic acid and asparagine at a concentration of 0.04 mg/mL (0.19 mM); Heavy growth. It counts as functional, cell-based. To be noted: Cricetulus griseus.

On to `CCOC(=O)/C=C/C(=O)NCC(N)C(=O)O` (centres undefined), for which the Growth inhibition result in the experiment with TsH1 [1], with TsH1 [2], in the experiment on TsH1 [3], in the experiment on TsH1 [4], in the experiment on TsH1 [5] and in the experiment with TsH1 [7] was “Heavy Growth” throughout. The Growth inhibition entry in the experiment on TsH1 [8], in the experiment on TsH1 [9], in the experiment with TsH1 [10], in the experiment with TsH1 [11], in the experiment on TsH1 [12] and in the experiment on TsH1 [13] was “Heavy Growth” throughout. For the same compound, the Growth inhibition result in the experiment with TsH1 [14], in the experiment with TsH1 [15], with TsH1 [16] and with TsH1 [17] was “Heavy Growth” each time. This compound also showed an inhibition in [6] of 37.4%.

In the case of `NC(CNC(=O)C(Cl)Cl)C(=O)O` (centres undefined), the Growth inhibition entry in the experiment on TsH1 [18] is “Heavy Growth”; in the experiment with TsH1 [19] it was “Not toxic”; in the experiment on TsH1 [20] it was “Heavy Growth”; with TsH1 [21], “Heavy Growth”; with TsH1 [22], “Heavy Growth”; in the experiment with TsH1 [23], “Medium Growth”. For the same compound, the Growth inhibition entry is “Heavy Growth” in the experiment with TsH1 [24]; “Heavy Growth” with TsH1 [25]; “Heavy Growth” in the experiment with TsH1 [26]; “Not toxic” with TsH1 [27]; “Not toxic” in the experiment with TsH1 [29]; “Not toxic” in the experiment with TsH1 [30]. The Growth inhibition result with TsH1 [31] is “Medium Growth”; in the experiment on TsH1 [32] it was “Heavy Growth”; with TsH1 [33] it was “Heavy Growth”; in the experiment with TsH1 [34], “Heavy Growth”. The inhibition in experiment [28] came to 18.7%.
